# Earlier results as cited in patent US20220401207A1, “DEVICES, SYSTEMS, AND METHODS FOR TREATMENT OF DUCT OCCLUSION” (Purdue Research Foundation, priority 2021, published 2022).
# How the values were obtained:
# [1] = test system: bacteria isolated from bile; conditions: number of bile cultures, N-acetyl-cysteine n = 12, co-trimoxazole n = 10
# gall bladder = conditions: opossums, CCK infused into the body
# cancerous mass = conditions: drug-eluting stent, drug comprises gemcitabine
Molecule,Bile samples cultured with Clostridium species [1],Bile samples cultured with Enterobacter species [1],Bile samples cultured with Enterococcus species [1],Bile samples cultured with K. oxytoca [1],Bile samples cultured with K. pneumonia [1],Bile samples cultured with Klebsiella species [1],other results
CC(=O)N[C@@H](CS)C(=O)O [N-acetyl-cysteine],5,6,10,5,3,8,Bile samples cultured with Citrobacter freundii [1]: 1; Bile samples cultured with Proteus species [1]: 1; Bile samples cultured with Escherichia coli ([1]; **p < 0.05): 6; Bile samples cultured with Streptococcus species ([1]; **p < 0.05): 4
cholecystokinin [CCK],,,,,,,Compliance (and thus the pressure) of the gall bladder (gall bladder): drops
Co-trimoxazole,2,2,6,1,4,5,Bile samples cultured with Bacteroides fragilis [1]: 1; Bile samples cultured with Candida species [1]: 2; Bile samples cultured with Pseudomonas aeruginosa [1]: 1; Bile samples cultured with Staphylococcus epidermidis [1]: 1
Nc1ccn([C@@H]2O[C@H](CO)[C@@H](O)C2(F)F)c(=O)n1 [gemcitabine],,,,,,,Life span of subjects (cancerous mass): increased life spans; Tumor size (cancerous mass): decreased tumor size
